Laboratory results as given in ChEMBL document CHEMBL5523762, “Discovery of Potent and Selective G9a Degraders for the Treatment of Pancreatic Cancer” (J Med Chem, 2024).
One block for each compound: values may come before it. The source made the active and inactive calls. The calls are words filed in the database; no cut-off is given here.

How the values were obtained:
[1] = target: T1, Histone-lysine N-methyltransferase EHMT2 (Homo sapiens) (UniProt Q96KQ7); assay: Induction of G9a degradation in human PANC-1 cells assessed as reduction in G9a protein level at 50 uM measured at 16 hrs by Western blot analysis; assay type: cell-based
T1 sequence (whole entry): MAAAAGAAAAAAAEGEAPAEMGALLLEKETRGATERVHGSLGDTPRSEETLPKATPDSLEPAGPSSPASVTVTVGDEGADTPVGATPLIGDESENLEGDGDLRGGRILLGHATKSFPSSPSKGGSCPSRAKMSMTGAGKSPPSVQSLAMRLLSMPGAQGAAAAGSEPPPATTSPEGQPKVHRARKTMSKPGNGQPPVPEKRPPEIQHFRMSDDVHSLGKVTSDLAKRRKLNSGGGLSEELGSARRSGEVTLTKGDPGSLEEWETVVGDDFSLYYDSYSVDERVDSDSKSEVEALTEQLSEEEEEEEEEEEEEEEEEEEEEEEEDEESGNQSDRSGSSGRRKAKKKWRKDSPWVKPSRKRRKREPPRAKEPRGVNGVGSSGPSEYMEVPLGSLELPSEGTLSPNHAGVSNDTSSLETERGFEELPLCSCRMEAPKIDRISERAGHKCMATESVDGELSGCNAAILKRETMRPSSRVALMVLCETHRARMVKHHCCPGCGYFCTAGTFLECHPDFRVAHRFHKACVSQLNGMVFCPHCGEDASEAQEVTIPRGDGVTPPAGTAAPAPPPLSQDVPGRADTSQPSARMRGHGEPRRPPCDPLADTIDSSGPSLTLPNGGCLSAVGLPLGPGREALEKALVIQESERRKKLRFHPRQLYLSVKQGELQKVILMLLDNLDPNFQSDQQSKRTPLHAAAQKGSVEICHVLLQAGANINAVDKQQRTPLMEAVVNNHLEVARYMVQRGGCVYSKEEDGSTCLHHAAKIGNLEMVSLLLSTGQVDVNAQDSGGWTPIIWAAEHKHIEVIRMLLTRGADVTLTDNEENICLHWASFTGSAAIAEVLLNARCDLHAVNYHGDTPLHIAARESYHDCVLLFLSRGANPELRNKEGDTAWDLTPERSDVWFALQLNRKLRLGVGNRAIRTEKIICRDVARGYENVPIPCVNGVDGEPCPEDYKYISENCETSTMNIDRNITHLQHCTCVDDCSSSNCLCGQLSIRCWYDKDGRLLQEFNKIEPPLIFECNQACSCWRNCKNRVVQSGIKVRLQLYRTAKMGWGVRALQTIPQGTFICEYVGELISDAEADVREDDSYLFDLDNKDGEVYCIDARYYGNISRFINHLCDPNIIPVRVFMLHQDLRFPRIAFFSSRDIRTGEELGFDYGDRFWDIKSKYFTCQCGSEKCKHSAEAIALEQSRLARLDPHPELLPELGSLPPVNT

[2] = target: T1, Histone-lysine N-methyltransferase EHMT2 (Homo sapiens); assay: Inhibition of N-terminal GST tagged human recombinant G9a (785 to 1210 residues) expressed in Escherichia coli using H3(1 to 21)K9me1 and SAM as substrates incubated for 1 hr by HTRF assay
[3] = target: T2, Protein cereblon/Histone-lysine N-methyltransferase EHMT2 (Homo sapiens, UniProt Q96KQ7+Q96SW2); assay: PROTAC activity at CRBN/G9a in human PANC-1 cells assessed as induction of G9a degradation at 1 uM by Western blot analysis; assay type: cell-based
[4] = target: T2, Protein cereblon/Histone-lysine N-methyltransferase EHMT2; assay: PROTAC activity at CRBN/G9a in human PANC-1 cells assessed as induction of G9a degradation at 0.1 uM measured after 24 hrs by Western blot analysis; assay type: cell-based
[5] = target: T1, Histone-lysine N-methyltransferase EHMT2 (Homo sapiens); assay: Induction of G9a degradation in human PANC-1 cells assessed as reduction in G9a protein level at 10 uM by Western blot analysis; assay type: cell-based
[6] = target: T1, Histone-lysine N-methyltransferase EHMT2 (Homo sapiens); assay: Induction of G9a degradation in human PANC-1 cells assessed as reduction in G9a protein level at 10 uM in presence of 1 uM UNC0638 by Western blot analysis; assay type: cell-based
[7] = target: T2, Protein cereblon/Histone-lysine N-methyltransferase EHMT2; assay: PROTAC activity at CRBN/G9a in human PANC-1 cells assessed as induction of G9a degradation at 0.1 to 1 uM measured after 24 hrs by Western blot analysis; assay type: cell-based; conditions: dose 0.1-1 µM

T2 sequence (Q96SW2 whole entry partner, one chain of several): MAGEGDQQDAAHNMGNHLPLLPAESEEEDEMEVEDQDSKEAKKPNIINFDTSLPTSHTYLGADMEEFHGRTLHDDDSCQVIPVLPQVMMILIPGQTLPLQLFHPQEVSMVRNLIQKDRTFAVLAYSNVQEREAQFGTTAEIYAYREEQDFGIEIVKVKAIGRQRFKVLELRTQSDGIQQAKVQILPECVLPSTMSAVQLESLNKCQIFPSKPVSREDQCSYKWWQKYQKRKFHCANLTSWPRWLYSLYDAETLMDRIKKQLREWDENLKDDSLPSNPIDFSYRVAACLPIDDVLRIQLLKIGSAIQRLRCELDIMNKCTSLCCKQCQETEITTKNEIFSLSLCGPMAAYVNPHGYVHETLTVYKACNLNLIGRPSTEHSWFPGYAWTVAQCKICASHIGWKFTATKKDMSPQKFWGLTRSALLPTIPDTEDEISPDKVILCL

Activity [3]: inactive
SMILES: COc1cc2c(NC3CCN(CCCC(=O)NCCCCCCCCNc4cccc5c4C(=O)N(C4CCC(=O)NC4=O)C5=O)CC3)nc(C3CCCCC3)nc2cc1OCCCN1CCC(F)(F)CC1 (stereo not given)

inhibition [2]: Active | Activity [4]: inactive
SMILES: COc1cc2c(NC3CCN(CCCC(=O)NCCCCCCCNc4cccc5c4C(=O)N(C4CCC(=O)NC4=O)C5=O)CC3)nc(C3CCCCC3)nc2cc1OCCCN1CCCC1 (stereo not given)

inhibition [2]: Active | Activity [4]: inactive
SMILES: COc1cc2c(NC3CCN(CCCC(=O)NCCCCCCCCCCNc4cccc5c4C(=O)N(C4CCC(=O)NC4=O)C5=O)CC3)nc(C3CCCCC3)nc2cc1OCCCN1CCCC1 (stereo not given)

Activity [3]: inactive
SMILES: COc1cc2c(NC3CCN(CCCC(=O)NCCCCCCCCNc4cccc5c4C(=O)N(C4CCC(=O)N(C)C4=O)C5=O)CC3)nc(C3CCCCC3)nc2cc1OCCCN1CCCC1 (stereo not given)

inhibition [2]: Active | Activity [4]: inactive
SMILES: COc1cc2c(NC3CCN(CCCC(=O)NCCCCCCCCCNc4cccc5c4C(=O)N(C4CCC(=O)NC4=O)C5=O)CC3)nc(C3CCCCC3)nc2cc1OCCCN1CCCC1 (stereo not given)

The next lines start with the compound.

SMILES: N=C(NCCCCCCNC(=N)NC(=N)Nc1ccc(Cl)cc1)NC(=N)Nc1ccc(Cl)cc1
Activity [1]: Active

SMILES: COc1cc2c(NC3CCN(CCCC(=O)NCCCCCCCCNc4ccc5c(c4)C(=O)N(C4CCC(=O)NC4=O)C5=O)CC3)nc(C3CCCCC3)nc2cc1OCCCN1CCCC1 (stereo not given)
inhibition [2]: Active

SMILES: COc1cc2c(NC3CCN(CCCC(=O)NCCCCCCCCOc4cccc5c4C(=O)N(C4CCC(=O)NC4=O)C5=O)CC3)nc(C3CCCCC3)nc2cc1OCCCN1CCCC1 (stereo not given)
inhibition [2]: Active

SMILES: O=C1CCC(N2C(=O)c3ccccc3C2=O)C(=O)N1 (stereo not given)
Activity [5]: inactive | Activity [6]: inactive

SMILES: COc1cc2c(NC3CCN(CCCC(=O)NCCOCCOCCNc4cccc5c4C(=O)N(C4CCC(=O)NC4=O)C5=O)CC3)nc(C3CCCCC3)nc2cc1OCCCN1CCCC1 (stereo not given)
inhibition [2]: Active

SMILES: COc1cc2c(NC3CCN(C(=O)CCC(=O)NCCCCCCCCNc4cccc5c4C(=O)N(C4CCC(=O)NC4=O)C5=O)CC3)nc(C3CCCCC3)nc2cc1OCCCN1CCCC1 (stereo not given)
Activity [7]: inactive
